Key:
platelets [1] = test: Collagen-induced platelet aggregation by light transmittance aggregometry (LTA) in PRP (Example 1); format: cell-based, human
Description: (§1) Blood from healthy individuals (n=6-7) was obtained by venipuncture and anticoagulated with FXa inhibitor. Platelet rich plasma (PRP) was obtained, and LTA was performed by standard procedures, initiating platelet aggregation with U-46619 (10 μM) or collagen (4 μg/ml).
LTA was performed on PRP samples using collagen (4 micrograms/ml) to induce platelet aggregation.

[2] = hundreds of randomized clinical trials; BMJ 324:71-86 (2002); cited from earlier work
platelets [3] = test: U-46619-induced platelet aggregation by light transmittance aggregometry (LTA) in PRP; format: cell-based, human
Description: as §1

platelets [4] = test: Real time perfusion chamber assay, blood perfused through collagen-coated capillaries (Example 1); format: cell-based, human; settings: non-aspirinated blood, ifetroban added in vitro; aspirin 325 mg per day for 2 weeks; FIG. 3
platelets [5] = test: Real time perfusion chamber assay (RTTP), healthy volunteers and AERD patients (Example 2); format: cell-based, human; settings: 100 nM or 350 nM spiked in vitro
Description: Real time perfusion chamber assays (RTTP) were performed using blood anticoagulated with Fxa inhibitor (10 uM 034) and perfused through collagen-coated capillaries (1100/sec). Thrombus formation on the collagen surface was monitored in real time using fluorescence microscopy to detect fluorescently labeled (R6G) platelets.
(§2) Assays were performed pre- (+/−ifetroban, spiked in vitro) and post-aspirin desensitization.

platelets [6] = test: Collagen-induced platelet aggregation LTA, healthy volunteers and AERD patients (Example 2); format: cell-based, human; settings: for anti-aggregatory activity in collagen-induced platelet aggregation assay: FIG. 5
Description: (§3) Light transmittance aggregometry (LTA) assays were performed by standard procedures, initiating platelet aggregation with collagen or arachidonic acid.
as §2

platelets [7] = test: Arachidonic acid-induced platelet aggregation LTA (Example 2); format: cell-based, human; settings: all three tested doses (1 μM, 350 nM, 100 nM); healthy volunteers and AERD patients; FIGS. 7A and 7B
Description: as §3, §2

Compound | reduction of the extent of collagen-induced platelet aggregation v. baseline (mean+sem) (platelets [1]; twenty healthy individuals, aspirin 325 mg/day for two weeks, collagen 4 micrograms/ml, PRP) | reduction in adverse events [2] | concentration that fully inhibited U-46619-induced platelet aggregation (platelets [3]; U-46619 10 μM, PRP anticoagulated with FXa inhibitor, ifetroban added in vitro, FIG. 2) [nM] | concentration predicted by U-46619-induced platelet aggregation assays (platelets [3]; U-46619-induced platelet aggregation) [nM] | concentration in collagen-induced assay relative to that predicted by U-46619-induced assay (platelets [1]; 350 nM v. 30 nM) | concentration for maximum inhibition of collagen-induced platelet aggregation (platelets [1]; collagen 4 μg/ml, non-aspirinated PRP, ifetroban added in vitro, FIG. 2) | amount required to inhibit collagen-induced versus U-46619-induced platelet aggregation (platelets [1]; collagen versus U-46619) | concentration providing equivalent or superior inhibitory activity on thrombosis as aspirin (platelets [4]) [nM] | antithrombotic activity in perfusion chamber assay (platelets [5]; AERD patients, FIG. 4B) | antithrombotic activity in perfusion chamber assay (platelets [5]; healthy volunteers, FIG. 4A) | anti-aggregatory activity in collagen-induced platelet aggregation assay (platelets [6]; AERD patients) | concentration reproducing aspirin effects on collagen-induced platelet aggregation and thrombosis (platelets [6]; AERD patients, FIG. 5B) [nM] | concentration showing statistically significant inhibition of collagen-induced platelet aggregation (platelets [6]; AERD patients, FIG. 5B) [nM] | inhibition of platelet aggregation compared with aspirin (platelets [6]; healthy volunteers, 100 nM ifetroban) | anti-aggregatory activity in collagen-induced platelet aggregation assay (platelets [6]; healthy volunteers) | concentration showing statistically significant inhibition of collagen-induced platelet aggregation (platelets [6]; normal volunteers (P=0.0281), FIG. 5A) [nM] | concentration reproducing aspirin effects on collagen-induced platelet aggregation and thrombosis (platelets [6]; normal volunteers, FIG. 5A) [nM] | effect on arachidonic acid-induced platelet aggregation (platelets [7])
CC(=O)Oc1ccccc1C(=O)O [aspirin] | 39+/−6.0% | 20-25% |  |  |  |  |  |  |  |  |  |  |  |  |  |  |  | 
CCCCCNC(=O)c1coc([C@H]2[C@@H](Cc3ccccc3CCC(=O)[O-])[C@@H]3CC[C@H]2O3)n1.[Na+] [ifetroban, [1S-(1α,2α,3α,4α)]-2-[[3-[4-[(pentylamino)carbonyl]-2-oxazolyl]-7-oxabicyclo[2.2.1]hept-2-yl]methyl]benzenepropanoic acid] |  |  | > 30 | 30 | approximately 10 times | greater than or equal to 350 nM | approximately 10 fold | ≥ 300 | significant antithrombotic activity | significant antithrombotic activity | significant anti-aggregatory activity | > 100 | > 100 | significantly lower inhibition of platelet aggregation than aspirin | significant anti-aggregatory activity | > 100 | > 100 | fully blocked
